Test system: 292921-168-R tumor spheroid viability
Assay: Anticancer human tumor 292921-168-R patient-derived pancreatic carcinoma cell line growth inhibition
Conditions: spheroids with HUVEC and MSC; for IC50: curve of first compound; for viability, T/C: stronger effect = lower value
Procedure, shortened: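 Complex spheroids of malignant cells with endothelial cells and mesenchymal stem cells; agents alone or combined, from near clinical Cmax (or 10 microM if unknown) down in half-log steps, 0.25% DMSO final.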

[1] = second compound 0.003 µM, first compound 0.0316 µM
[2] = second compound 0.003 µM, first compound 0.1 µM
[3] = second compound 0.003 µM, first compound 0.316 µM
[4] = second compound 0.003 µM, first compound 1 µM
[5] = second compound 0.003 µM, first compound 3.16 µM
[6] = second compound 0.003 µM, first compound 10 µM
[7] = second compound 0.00949 µM, first compound 0.0316 µM
[8] = second compound 0.00949 µM, first compound 0.1 µM
[9] = second compound 0.00949 µM, first compound 0.316 µM
[10] = second compound 0.00949 µM, first compound 1 µM
[11] = second compound 0.00949 µM, first compound 3.16 µM
[12] = second compound 0.00949 µM, first compound 10 µM
[13] = second compound 0.03 µM, first compound 0.0316 µM
[14] = second compound 0.03 µM, first compound 0.1 µM
[15] = second compound 0.03 µM, first compound 0.316 µM
[16] = second compound 0.03 µM, first compound 1 µM
[17] = second compound 0.03 µM, first compound 3.16 µM
[18] = second compound 0.03 µM, first compound 10 µM
[19] = second compound 0.0949 µM, first compound 0.0316 µM
[20] = second compound 0.0949 µM, first compound 0.1 µM
[21] = second compound 0.0949 µM, first compound 0.316 µM
[22] = second compound 0.0949 µM, first compound 1 µM
[23] = second compound 0.0949 µM, first compound 3.16 µM
[24] = second compound 0.0949 µM, first compound 10 µM
[25] = second compound 0.3 µM, first compound 0.0316 µM
[26] = second compound 0.3 µM, first compound 0.1 µM
[27] = second compound 0.3 µM, first compound 0.316 µM
[28] = second compound 0.3 µM, first compound 1 µM
[29] = second compound 0.3 µM, first compound 3.16 µM
[30] = second compound 0.3 µM, first compound 10 µM
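Note: spheroids exposed to compounds for 7 days.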

Cc1sc2c(c1C)C(c1ccc(Cl)cc1)=NC(CC(=O)Nc1ccc(O)cc1)c1nnc(C)n1-2 (stereo not given) + COc1cc2c(cc1O)CCNC21CSC2c3c(OC(C)=O)c(C)c4c(c3C(COC1=O)N1C(O)C3Cc5cc(C)c(OC)c(O)c5C(C21)N3C)OCO4
IC50 (second compound 30 pM): 1690 nM
IC50 (second compound 94.9 pM): 1720 nM
IC50 (second compound 0.0003 µM): 306 nM
IC50 (second compound 0.000949 µM): < 9.49 nM
IC50 (second compound 0.003 µM): < 9.49 nM
viability, T/C (second compound 30 pM, first compound 0.00949 µM): 110%
viability, T/C (second compound 30 pM, first compound 0.03 µM): 120%
viability, T/C (second compound 30 pM, first compound 0.0949 µM): 118%
viability, T/C (second compound 30 pM, first compound 0.3 µM): 136%
viability, T/C (second compound 30 pM, first compound 0.949 µM): 63.5%
viability, T/C (second compound 30 pM, first compound 3 µM): 36.5%
viability, T/C (second compound 94.9 pM, first compound 0.00949 µM): 106%
viability, T/C (second compound 94.9 pM, first compound 0.03 µM): 110%
viability, T/C (second compound 94.9 pM, first compound 0.0949 µM): 118%
viability, T/C (second compound 94.9 pM, first compound 0.3 µM): 110%
viability, T/C (second compound 94.9 pM, first compound 0.949 µM): 79.2%
viability, T/C (second compound 94.9 pM, first compound 3 µM): 22.5%
viability, T/C (second compound 0.0003 µM, first compound 0.00949 µM): 53.8%
viability, T/C (second compound 0.0003 µM, first compound 0.03 µM): 52.6%
viability, T/C (second compound 0.0003 µM, first compound 0.0949 µM): 63.2%
viability, T/C (second compound 0.0003 µM, first compound 0.3 µM): 50.7%
viability, T/C (second compound 0.0003 µM, first compound 0.949 µM): 4.2%
viability, T/C (second compound 0.0003 µM, first compound 3 µM): 0.5%
viability, T/C (second compound 0.000949 µM, first compound 0.00949 µM): 1.64%
viability, T/C (second compound 0.000949 µM, first compound 0.03 µM): 1.61%
viability, T/C (second compound 0.000949 µM, first compound 0.0949 µM): 0.91%
viability, T/C (second compound 0.000949 µM, first compound 0.3 µM): 0.26%
viability, T/C (second compound 0.000949 µM, first compound 0.949 µM): 0.07%
viability, T/C (second compound 0.000949 µM, first compound 3 µM): 0.13%
viability, T/C (second compound 0.003 µM, first compound 0.00949 µM): 0.18%
viability, T/C (second compound 0.003 µM, first compound 0.03 µM): 0.16%
viability, T/C (second compound 0.003 µM, first compound 0.0949 µM): 0.16%
viability, T/C (second compound 0.003 µM, first compound 0.3 µM): 0.15%
viability, T/C (second compound 0.003 µM, first compound 0.949 µM): 0.25%
viability, T/C (second compound 0.003 µM, first compound 3 µM): 0.58%

CC1COCCN1c1cc(-c2ccnn2C)c2ccnc(-c3ccn[nH]3)c2n1 (stereo not given) + CC[C@@]1(O)C(=O)OCc2c1cc1n(c2=O)Cc2cc3c(CN(C)C)c(O)ccc3nc2-1
IC50 (second compound 0.003 µM): < 31.6 nM
IC50 (second compound 0.00949 µM): < 31.6 nM
IC50 (second compound 0.03 µM): < 31.6 nM
IC50 (second compound 0.0949 µM): < 31.6 nM
IC50 (second compound 0.3 µM): < 31.6 nM
viability, T/C [1]: 22.8%
viability, T/C [2]: 13.6%
viability, T/C [3]: 10%
viability, T/C [4]: 12.2%
viability, T/C [5]: 14.4%
viability, T/C [6]: 15.4%
viability, T/C [7]: 11.6%
viability, T/C [8]: 9.97%
viability, T/C [9]: 10%
viability, T/C [10]: 11.8%
viability, T/C [11]: 13.8%
viability, T/C [12]: 15%
viability, T/C [13]: 8.44%
viability, T/C [14]: 7.98%
viability, T/C [15]: 9.15%
viability, T/C [16]: 10.8%
viability, T/C [17]: 12.5%
viability, T/C [18]: 14.3%
viability, T/C [19]: 4.99%
viability, T/C [20]: 4.72%
viability, T/C [21]: 5.08%
viability, T/C [22]: 8.1%
viability, T/C [23]: 10.9%
viability, T/C [24]: 12.6%
viability, T/C [25]: 2.78%
viability, T/C [26]: 2.83%
viability, T/C [27]: 3.27%
viability, T/C [28]: 4.98%
viability, T/C [29]: 6.98%
viability, T/C [30]: 9.23%

CC(C)n1c(=O)n(C)c2cnc3cc(F)c(-c4ccc(OCCCN5CCCCC5)nc4)cc3c21 + CC[C@@]1(O)C(=O)OCc2c1cc1n(c2=O)Cc2cc3c(CN(C)C)c(O)ccc3nc2-1
IC50 (second compound 0.003 µM): < 31.6 nM
IC50 (second compound 0.00949 µM): < 31.6 nM
IC50 (second compound 0.03 µM): < 31.6 nM
IC50 (second compound 0.0949 µM): < 31.6 nM
IC50 (second compound 0.3 µM): < 31.6 nM
viability, T/C [1]: 45.7%
viability, T/C [2]: 42.4%
viability, T/C [3]: 44.9%
viability, T/C [4]: 42.3%
viability, T/C [5]: 41.4%
viability, T/C [6]: 20.4%
viability, T/C [7]: 25.4%
viability, T/C [8]: 23.7%
viability, T/C [9]: 22.3%
viability, T/C [10]: 25.2%
viability, T/C [11]: 24.4%
viability, T/C [12]: 18.7%
viability, T/C [13]: 20.2%
viability, T/C [14]: 22.4%
viability, T/C [15]: 20.4%
viability, T/C [16]: 20.4%
viability, T/C [17]: 23.2%
viability, T/C [18]: 16.7%
viability, T/C [19]: 13.2%
viability, T/C [20]: 14.7%
viability, T/C [21]: 13.7%
viability, T/C [22]: 14.8%
viability, T/C [23]: 16.8%
viability, T/C [24]: 14.8%
viability, T/C [25]: 4.72%
viability, T/C [26]: 4.71%
viability, T/C [27]: 5.4%
viability, T/C [28]: 6.25%
viability, T/C [29]: 8.92%
viability, T/C [30]: 10.4%

COc1ccc([C@@H](O)c2cc(-c3ncnc4cc(N5CCOCC5)ccc34)c(F)cc2Cl)nn1 + CC[C@@]1(O)C(=O)OCc2c1cc1n(c2=O)Cc2cc3c(CN(C)C)c(O)ccc3nc2-1
IC50 (second compound 0.003 µM): 1350 nM
IC50 (second compound 0.00949 µM): 974 nM
IC50 (second compound 0.03 µM): < 31.6 nM
IC50 (second compound 0.0949 µM): < 31.6 nM
IC50 (second compound 0.3 µM): < 31.6 nM
viability, T/C [1]: 102%
viability, T/C [2]: 94.4%
viability, T/C [3]: 77.8%
viability, T/C [4]: 55.3%
viability, T/C [5]: 34.8%
viability, T/C [6]: 20.8%
viability, T/C [7]: 77.5%
viability, T/C [8]: 74.5%
viability, T/C [9]: 71.9%
viability, T/C [10]: 45.6%
viability, T/C [11]: 32.9%
viability, T/C [12]: 17.9%
viability, T/C [13]: 41.8%
viability, T/C [14]: 38.7%
viability, T/C [15]: 34.5%
viability, T/C [16]: 25.8%
viability, T/C [17]: 21.5%
viability, T/C [18]: 17.1%
viability, T/C [19]: 10.8%
viability, T/C [20]: 12%
viability, T/C [21]: 12.5%
viability, T/C [22]: 13.2%
viability, T/C [23]: 14.5%
viability, T/C [24]: 13.8%
viability, T/C [25]: 3.98%
viability, T/C [26]: 3.78%
viability, T/C [27]: 4.06%
viability, T/C [28]: 4.72%
viability, T/C [29]: 6.62%
viability, T/C [30]: 8.28%
